Data from patent US8389523B2, “Substituted quinoxaline and an agrochemical composition thereof” (Kumiai Chemical Industry Co., Ltd., priority 2007, dated 2013).

Tests used:
Assay type in all cases: in vivo
Parameters in all cases: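 grade 0 to 5 of growth suppression where 5 is 90% or more and 0 below 10%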
Amaranthus viridis L. [1] = experiment: Herbicidal effects in upland field foliar treatment (Test Example 3); settings: criteria of Table 138; for herbicidal effect (index) on Amaranthus viridis L.: 1000 g active ingredient per hectare, 14th day after treatment; for herbicidal effects on Amaranthus viridis L.: 1000 g of the active ingredient per hectare, 14th day after the treatment, wettable powder
Experimental: (§1) Test Example 3 Test on Herbicidal Effects in Upland Field Foliar Treatment A 80-cm^2 plastic pot was filled with upland field soil. Seeds of Echinochloa crus-galli (L.) P. Beauv. var. crus-galli, Abutilon theophrasti medicus and Amaranthus viridis L. were sowed, and the plants were grown for two weeks in a greenhouse. A wettable powder formulation prepared according to Preparation Example 1 was diluted with water, and was sprayed with a small sprayer to perform foliar application over the entirety of plants from the upper side, in an amount equivalent to 1000 liters per hectare, such that 1000 g of the active ingredient per hectare was applied. Thereafter, the plants were grown in a greenhouse, and on the 14th day after the treatment, the herbicidal effects were investigated according to the criteria described in the Table 138 shown above.

[2] = test system: Echinochloa crus-galli (L.) P. Beauv. var. crus-galli; experiment: as above; settings: criteria of Table 138; for herbicidal effect (index) on Echinochloa crus-galli (L.) P. Beauv. var. crus-galli: 1000 g active ingredient per hectare, 14th day after treatment; for herbicidal effects on Echinochloa crus-galli (L.) P. Beauv. var. crus-galli: 1000 g of the active ingredient per hectare, 14th day after the treatment, wettable powder
Experimental: as §1

[3] = test system: Abutilon theophrasti medicus; experiment: as above; settings: criteria of Table 138; for herbicidal effect (index) on Abutilon theophrasti medicus: 1000 g active ingredient per hectare, 14th day after treatment; for herbicidal effects on Abutilon theophrasti medicus: 1000 g of the active ingredient per hectare, 14th day after the treatment, wettable powder
Experimental: as §1

[4] = test system: Scirpus juncoides Roxb. var. ohwianus. T. Koyama; experiment: Herbicidal effects in paddy field soil treatment (Test Example 1); settings: paddy field soil treatment; 1000 g of the active ingredient per hectare; wettable powder added dropwise on water surface; 21st day after treatment
Experimental: (§2) Test for Herbicidal Effects in Paddy Field Soil Treatment
(§3) A 100-cm^2 plastic pot was filled with paddy field soil. After puddling and leveling, seeds of Echinochloa oryzicola Vasing, Monochoria vaginalis (Burm. f.) Presl var. plantaginea (Roxb.) Solms-Laub., and Scirpus juncoides Roxb. var. ohwianus. T. Koyama were sowed, and the soil was waterlogged to a water depth of 3 cm. On the next day, a wettable powder formulation prepared according to Preparation Example 1 was diluted with water, and was added dropwise on the water surface. The amount of application was an amount equivalent to 1000 g of the active ingredient per hectare. Thereafter, the plants were grown in a greenhouse, and on the 21st day after the treatment, the herbicidal effects were investigated according to the criteria described in Table 138.

[5] = test system: Monochoria vaginalis (Burm. f.) Presl var. plantaginea (Roxb.) Solms-Laub.; experiment: as above; settings: paddy field soil treatment; 1000 g of the active ingredient per hectare; wettable powder added dropwise on water surface; 21st day after treatment
Experimental: as §2, §3

[6] = test system: Echinochloa oryzicola Vasing; experiment: as above; settings: paddy field soil treatment; 1000 g of the active ingredient per hectare; wettable powder added dropwise on water surface; 21st day after treatment
Experimental: as §2, §3

Amaranthus viridis L. [7] = experiment: Herbicidal effects in upland field soil treatment (Test Example 2); settings: 1000 g active ingredient per hectare, 21st day after treatment, criteria of Table 138
Experimental: (§4) Test Example 2 Test on Herbicidal Effects in Upland Field Soil Treatment A 80-cm^2 plastic pot was filled with upland field soil. Seeds of Abutilon theophrasti medicus and Amaranthus viridis L. were sowed, and soil was covered. A wettable powder formulation prepared according to Preparation Example 1 was diluted with water, and was uniformly sprayed on the soil surface with a small sprayer, in an amount equivalent to 1000 liters per hectare, such that 1000 g of the active ingredient per hectare was applied. Thereafter, the plants were grown in a greenhouse, and on the 21st day after the treatment, the herbicidal effects were investigated according to the criteria described in the Table 138 shown above.

[8] = test system: Abutilon theophrasti medicus; experiment: as above; settings: 1000 g active ingredient per hectare, 21st day after treatment, criteria of Table 138
Experimental: as §4

Row | Structure (SMILES) | herbicidal effect (index) on Amaranthus viridis L. (Amaranthus viridis L. [1]) | herbicidal effect (index) on Echinochloa crus-galli (L.) P. Beauv. var. crus-galli [2] | herbicidal effect (index) on Abutilon theophrasti medicus [3] | Herbicidal effects index, Scirpus juncoides Roxb. var. ohwianus. T. Koyama [4] | Herbicidal effects index, Monochoria vaginalis (Burm. f.) Presl var. plantaginea (Roxb.) Solms-Laub. [5] | Herbicidal effects index, Echinochloa oryzicola Vasing [6] | herbicidal effects on Amaranthus viridis L. (Amaranthus viridis L. [1]) | herbicidal effects on Echinochloa crus-galli (L.) P. Beauv. var. crus-galli [2] | herbicidal effects on Abutilon theophrasti medicus [3] | herbicidal effect (index) on Amaranthus viridis L. (Amaranthus viridis L. [7]) | herbicidal effect (index) on Abutilon theophrasti medicus [8]
1 | CCCCCCn1c(=O)c(C(=O)C2=C(O)CCCC2=O)nc2ccccc21 [Compound I-22] | 5 | 4 | 5 | 5 | 5 | 5 | – | – | – | – | –
2 | CSCCn1c(=O)c(C(=O)C2=C(O)CCCC2=O)nc2ccccc21 [Compound I-91] | 5 | 5 | 5 | 5 | 5 | 5 | – | – | – | – | –
3 | CS(=O)(=O)CCn1c(=O)c(C(=O)C2=C(O)CCCC2=O)nc2ccccc21 [Compound I-92] | 5 | 5 | 5 | 5 | 5 | 4 | – | – | – | – | –
4 | CN(C)C(=O)Cn1c(=O)c(C(=O)C2=C(O)CCCC2=O)nc2ccccc21 [Compound I-100] | 5 | 5 | 4 | – | – | – | – | – | – | – | –
5 | C#CCn1c(=O)c(C(=O)C2=C(O)CCCC2=O)nc2ccccc21 [I-35] | 5 | 4 | 5 | 5 | 5 | 5 | – | – | – | – | –
6 | C[S+]([O-])CCOCn1c(=O)c(C(=O)C2=C(O)CCCC2=O)nc2ccccc21 (stereo not shown) [I-67] | 5 | 4 | 5 | 5 | 5 | 4 | – | – | – | – | –
7 | O=C1CCCC(O)=C1C(=O)c1nc2ccccc2n(Cc2ccccc2Cl)c1=O [I-111] | 5 | 5 | 5 | 5 | 5 | 5 | – | – | – | – | –
8 | O=C1CCCC(O)=C1C(=O)c1nc2ccccc2n(Cc2cccc(Cl)c2)c1=O [I-112] | 5 | 4 | 5 | 5 | 5 | 5 | – | – | – | – | –
9 | O=C1CCCC(O)=C1C(=O)c1nc2ccccc2n(C2CCSC2)c1=O (stereo not shown) [I-136] | 5 | 4 | 5 | – | – | – | – | – | – | – | –
10 | O=C1CCCC(O)=C1C(=O)c1nc2ccccc2n(C2CCS(=O)(=O)C2)c1=O (stereo not shown) [I-137] | 5 | 4 | 5 | 5 | 5 | 5 | – | – | – | – | –
11 | CSc1ccc2nc(C(=O)C3=C(O)CCCC3=O)c(=O)n(C)c2c1 [I-243] | 5 | 5 | 5 | – | – | – | – | – | – | – | –
12 | Cn1c(=O)c(C(=O)C2=C(O)CCCC2=O)nc2ccc(S(C)(=O)=O)cc21 [I-247] | 5 | 4 | 5 | – | – | – | – | – | – | – | –
13 | O=C1CCCC(O)=C1C(=O)c1nc2ccccc2n(-c2ccc(O)cc2)c1=O [II-51] | – | – | – | 5 | 5 | 5 | 5 | 4 | 5 | – | –
14 | CCCOc1cccc(-n2c(=O)c(C(=O)C3=C(O)CCCC3=O)nc3ccccc32)c1 [II-71] | – | – | – | 5 | 5 | 4 | 5 | 4 | 5 | – | –
15 | CC(C)Oc1cccc(-n2c(=O)c(C(=O)C3=C(O)CCCC3=O)nc3ccccc32)c1 [II-74] | – | – | – | 5 | 5 | 5 | 4 | 3 | 4 | – | –
16 | C#CCOc1ccc(-n2c(=O)c(C(=O)C3=C(O)CCCC3=O)nc3ccccc32)cc1 [II-84] | – | – | – | 5 | 5 | 5 | 5 | 4 | 4 | – | –
17 | O=C1CCCC(O)=C1C(=O)c1nc2ccccc2n(-c2ccc(OCC3CCCO3)cc2)c1=O (stereo not shown) [II-116] | – | – | – | 5 | 5 | 5 | 5 | 4 | 4 | – | –
18 | COc1ccc(-n2c(=O)c(C(=O)C3=C(O)CCCC3=O)nc3ccc(C)cc32)cc1 [II-247] | – | – | – | 5 | 5 | 4 | – | – | – | 5 | 5
19 | COc1ccc(-n2c(=O)c(C(=O)C3=C(O)CCCC3=O)nc3c(F)cc(F)cc32)cc1 [II-259] | – | – | – | 5 | 5 | 4 | – | – | – | 5 | 5
20 | COc1ccc(-n2c(=O)c(C(=O)C3=C(O)CCCC3=O)nc3c(Cl)cccc32)cc1F [II-301] | – | – | – | 5 | 5 | 5 | – | – | – | 5 | 5
21 | COc1ccc2nc(C(=O)C3=C(O)CCCC3=O)c(=O)n(-c3ccc(C)cc3)c2c1 [II-306] | – | – | – | 5 | 5 | 5 | – | – | – | 5 | 5
22 | CSCn1c(=O)c(C(=O)C2=C(O)CCCC2=O)nc2cccnc21 [III-70] | – | – | – | 5 | 5 | 4 | – | – | – | 5 | 5
